Measured values published in patent US20250034216A1, “STEREOSELECTIVE COVALENT LIGANDS FOR ONCOGENIC AND IMMUNOLOGICAL PROTEINS” (The Scripps Research Institute, priority 2021, published 2025).

Legend:
Assay in all cases: IA-DTB cysteine engagement
Assay type in all cases: binding
Conditions in all cases: 22Rv1 cells, 20 μM probe, 1 h, relative to DMSO
COX6B1_C54 = biological target: T1, COX6B1_C54 (Homo sapiens, UniProt P14854)
T1 construct: endogenous in cells; host or cells: 22Rv1
Protocol: (§1) Sample preparation: Cells (adherent: 15 cm dishes, suspension: 2 million cells/mL) were treated with electrophilic probes in situ for indicated times and concentrations, washed with ice-cold PBS, and flash frozen in liquid nitrogen. Cell pellets were lysed by sonication (8 pulses, 40% power) in 500 μL ice-cold PBS supplemented with cOmplete protease inhibitors (1 tablet/10 mL of PBS). Whole cell lysates protein content was measured using a standard DC protein assay (Bio-Rad) and 500 μL (2 mg/mL protein content) were treated with 5 μL of 10 mM 1A-DTB (in DMSO) for 1 h at ambient temperature with occasional vortexing. Samples were methanol-chloroform precipitated with the addition of 500 μL ice-cold MeOH and 200 μL CHCl3, vortexed, and centrifuged (10 min, 10,000 g). Without disrupting the protein disk, both top and bottom layers were aspirated and the protein disk was washed with 1 mL ice-cold MeOH and centrifuged (10 min, 10,000 g). The pellets were allowed to air dry, and then re-suspended in 90 μL buffer (9 M urea, 10 mM DTT, 50 mM TEAB pH 8.5). Samples were reduced by heating at 65 C for 20 minutes and water bath sonicated as needed to resuspend the protein pellets, followed by alkylation via addition of 10 μL (500 mM) iodoacetamide and incubated at 37 C for 30 min with shaking. Samples were briefly centrifuged, and probe sonicated once more to ensure complete resuspension, and then diluted with 300 μL buffer (50 mM TEAB pH 8.5) to reach final concentration of 2 M urea. Trypsin (4 μL of 0.25 μg/μL in trypsin resuspension buffer with 25 mM CaCl2)) was added to each sample and digested at 37 C for 2 h to overnight. Digested samples were then diluted with 300 μL wash buffer (50 mM TEAB pH 8.5, 150 mM NaCl, 0.2% NP-40) containing streptavidin-agarose beads (50 μL of 50% slurry in wash buffer) and were rotated at room temperature for 2 hours. Enriched samples were pelleted by centrifugation (2000 g, 2 min) and transferred to BioSpin columns and washed (3×1 mL wash buffer, 3×1 mL PBS, 3×1 mL water). Enriched peptides were eluted by 300 μL 50% acetonitrile with 0.1% formic acid and eluate was evaporated to dryness via speedvac. IA-DTB labeled and enriched peptides were resuspended in 100 μL EPPS buffer (200 mM, pH 8.0) with 30% acetonitrile, vortexed, and water bath sonicated. Samples were TMT labeled with 3 μL of corresponding TMT tag (5 mg tag resuspended in 256 μL acetonitrile), vortexed, and incubated at room temperature for 1 hour. TMT labeling was quenched with the addition of hydroxylamine (5 μL 5% solution in H2O) and incubated for 15 minutes at room temperature. Samples were then acidified with 5 μL formic acid, combined and dried using a SpeedVac. Samples were desalted via Sep-Pak and then high pH fractionated.
(§2) Data processing: Cysteine engagement ratios (probe vs DMSO) were calculated for each peptide-spectra match by dividing each TMT reporter ion intensity by the average intensity for the channels corresponding to DMSO treatment. Peptide-spectra matches were then grouped based on protein ID and residue number (e.g., PSME1 C22), excluding peptides with summed reporter ion intensities for the DMSO channels <10,000, coefficient of variation for DMSO channels >0.5, and non-tryptic peptide sequences. TMT reporter ion intensities were normalized to the median summed signal intensity across channels.
(§3) Filtering of cysteine data: Replicates were combined based on cell line and treatment condition (probe, concentration, duration) by averaging cysteine engagement ratios across all experiments.

NUP205_C224 = biological target: T2, NUP205_C224 (Homo sapiens, UniProt Q92621)
T2 construct: endogenous in cells; host or cells: 22Rv1
Protocol: as §1, §2, §3

SLC12A8_C660 = biological target: T3, SLC12A8_C660 (Homo sapiens, UniProt A0AV02)
T3 construct: endogenous in cells; host or cells: 22Rv1
T3 sequence (A0AV02 1-714): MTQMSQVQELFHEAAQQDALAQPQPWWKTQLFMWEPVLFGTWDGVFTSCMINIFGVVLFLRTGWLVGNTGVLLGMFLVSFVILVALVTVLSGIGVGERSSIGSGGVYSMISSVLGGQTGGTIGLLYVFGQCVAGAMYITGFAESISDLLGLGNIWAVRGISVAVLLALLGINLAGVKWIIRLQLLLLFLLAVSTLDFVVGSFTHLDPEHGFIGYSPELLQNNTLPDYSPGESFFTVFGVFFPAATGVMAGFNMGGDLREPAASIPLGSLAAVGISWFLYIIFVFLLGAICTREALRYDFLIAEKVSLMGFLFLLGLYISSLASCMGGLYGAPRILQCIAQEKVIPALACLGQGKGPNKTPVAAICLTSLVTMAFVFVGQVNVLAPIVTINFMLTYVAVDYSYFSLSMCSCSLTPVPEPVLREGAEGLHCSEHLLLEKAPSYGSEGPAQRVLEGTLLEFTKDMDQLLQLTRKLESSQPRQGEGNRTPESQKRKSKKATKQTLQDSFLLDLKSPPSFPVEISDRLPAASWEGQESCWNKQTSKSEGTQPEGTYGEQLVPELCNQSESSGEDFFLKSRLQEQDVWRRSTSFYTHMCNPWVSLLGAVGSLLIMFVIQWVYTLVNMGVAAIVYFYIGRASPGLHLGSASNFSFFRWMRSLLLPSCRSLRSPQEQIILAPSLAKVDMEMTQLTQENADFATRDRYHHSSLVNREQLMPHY
Protocol: as §1, §2, §3

T1 sequence (P14854 whole entry): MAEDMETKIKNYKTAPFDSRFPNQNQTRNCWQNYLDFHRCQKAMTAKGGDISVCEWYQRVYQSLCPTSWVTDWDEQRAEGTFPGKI
T2 sequence (Q92621 whole entry): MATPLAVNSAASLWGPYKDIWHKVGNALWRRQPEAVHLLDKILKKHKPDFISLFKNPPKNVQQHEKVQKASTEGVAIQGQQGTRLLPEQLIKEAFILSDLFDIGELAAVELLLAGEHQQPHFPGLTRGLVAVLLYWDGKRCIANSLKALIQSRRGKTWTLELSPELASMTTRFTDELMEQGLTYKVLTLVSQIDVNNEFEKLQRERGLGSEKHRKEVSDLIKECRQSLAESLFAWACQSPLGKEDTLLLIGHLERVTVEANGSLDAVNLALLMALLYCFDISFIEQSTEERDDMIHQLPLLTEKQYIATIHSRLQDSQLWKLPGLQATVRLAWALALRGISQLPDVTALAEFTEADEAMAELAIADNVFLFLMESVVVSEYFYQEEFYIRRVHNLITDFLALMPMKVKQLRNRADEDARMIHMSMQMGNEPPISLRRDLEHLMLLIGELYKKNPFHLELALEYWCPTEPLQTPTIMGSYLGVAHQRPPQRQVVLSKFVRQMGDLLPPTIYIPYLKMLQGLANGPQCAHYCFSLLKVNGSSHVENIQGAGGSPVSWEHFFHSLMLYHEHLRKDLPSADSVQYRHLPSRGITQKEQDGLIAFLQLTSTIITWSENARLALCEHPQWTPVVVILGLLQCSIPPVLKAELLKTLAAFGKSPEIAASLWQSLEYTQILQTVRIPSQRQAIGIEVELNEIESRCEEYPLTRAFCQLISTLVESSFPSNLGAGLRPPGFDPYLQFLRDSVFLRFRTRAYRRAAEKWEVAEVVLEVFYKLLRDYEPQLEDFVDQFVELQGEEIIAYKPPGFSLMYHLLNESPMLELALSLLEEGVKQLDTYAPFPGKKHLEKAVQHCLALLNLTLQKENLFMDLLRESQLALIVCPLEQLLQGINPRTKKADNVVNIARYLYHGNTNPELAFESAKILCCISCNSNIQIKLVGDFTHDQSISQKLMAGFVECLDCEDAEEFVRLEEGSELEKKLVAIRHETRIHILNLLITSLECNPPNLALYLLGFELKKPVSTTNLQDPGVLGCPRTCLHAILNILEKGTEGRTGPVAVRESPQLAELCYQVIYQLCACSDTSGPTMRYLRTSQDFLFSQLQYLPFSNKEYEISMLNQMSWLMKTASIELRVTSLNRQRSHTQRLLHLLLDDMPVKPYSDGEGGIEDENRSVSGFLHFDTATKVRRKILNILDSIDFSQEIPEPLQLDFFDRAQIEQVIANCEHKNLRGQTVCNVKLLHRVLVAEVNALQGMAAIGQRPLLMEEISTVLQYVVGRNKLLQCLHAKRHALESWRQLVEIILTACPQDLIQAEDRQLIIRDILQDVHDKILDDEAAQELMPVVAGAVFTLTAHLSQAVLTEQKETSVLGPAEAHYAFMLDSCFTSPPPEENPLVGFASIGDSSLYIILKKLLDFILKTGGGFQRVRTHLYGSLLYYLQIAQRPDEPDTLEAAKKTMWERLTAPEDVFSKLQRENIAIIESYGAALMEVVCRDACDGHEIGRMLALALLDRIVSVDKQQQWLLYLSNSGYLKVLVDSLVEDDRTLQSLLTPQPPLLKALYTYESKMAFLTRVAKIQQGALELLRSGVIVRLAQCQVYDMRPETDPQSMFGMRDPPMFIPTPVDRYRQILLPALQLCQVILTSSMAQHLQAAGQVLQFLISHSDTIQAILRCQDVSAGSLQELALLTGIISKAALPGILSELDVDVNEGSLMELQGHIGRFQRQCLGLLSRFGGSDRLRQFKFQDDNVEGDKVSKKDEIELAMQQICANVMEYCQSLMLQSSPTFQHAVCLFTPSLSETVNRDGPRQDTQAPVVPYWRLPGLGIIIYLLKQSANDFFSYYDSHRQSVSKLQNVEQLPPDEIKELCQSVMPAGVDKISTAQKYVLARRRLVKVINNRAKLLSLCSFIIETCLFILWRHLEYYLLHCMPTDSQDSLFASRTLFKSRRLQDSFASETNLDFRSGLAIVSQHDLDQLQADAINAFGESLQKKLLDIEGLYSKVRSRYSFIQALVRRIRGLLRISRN

| % engagement COX6B1_C54 (COX6B1_C54) | % engagement NUP205_C224 (NUP205_C224) | % engagement SLC12A8_C660 (SLC12A8_C660) | Compound |
| --- | --- | --- | --- |
| 66.5% | 28.5% | 77.5% | C=CC(=O)N1C[C@@H](c2ccc(Br)cc2)[C@H]1C(=O)Nc1cccc2cccnc12 [MY-1A, (2S,3R)-1-acryloyl-3-(4-bromophenyl)-N-(quinolin-8-yl)azetidine-2-carboxamide] |
| 56% | 6% | 61.5% | C=CC(=O)N1C[C@H](c2ccc(Br)cc2)[C@@H]1C(=O)Nc1cccc2cccnc12 [MY-1B, (2R,3S)-1-acryloyl-3-(4-bromophenyl)-N-(quinolin-8-yl)azetidine-2-carboxamide] |
| 36.5% | 30.5% | 68.5% | C=CC(=O)N1C[C@H](c2ccc(Br)cc2)[C@H]1C(=O)Nc1cccc2cccnc12 [MY-3B, (2S,3S)-1-acryloyl-3-(4-bromophenyl)-N-(quinolin-8-yl)azetidine-2-carboxamide] |
| 33.5% | 100% | 41% | C=CC(=O)N1C[C@H](c2ccc(Br)cc2)[C@H]1C(=O)Nc1cccc2cccnc12 [MY-3A, (2S,3S)-1-acryloyl-3-(4-bromophenyl)-N-(quinolin-8-yl)azetidine-2-carboxamide] |
